Reference: the NIST ThermoML archive (doi:10.1016/j.jct.2013.05.014)

Experiments:
[1] = xn = mol fraction of the nth substance listed; conditions: 298.15 K, 101 kPa, Liquid; for viscosity: Capillary tube (Ostwald / Ubbelohde) method; for mass density: Pycnometric method
[2] = 298.15 K, 101 kPa, Liquid; for viscosity: Capillary tube (Ostwald / Ubbelohde) method; for mass density: Pycnometric method

CCCCCC(C)O (centres undefined) [2-heptanol] + CCCCCCCCCC
[1]
Conditions | mass density [kg/m3] | viscosity [mPa·s]
x2 = 0 | 813.74 | 5.08
x2 = 0.0552 | 806.87 | 4.25
x2 = 0.0999 | 801.55 | 3.732
x2 = 0.1555 | 795.15 | 3.152
x2 = 0.1999 | 790.26 | 2.74
x2 = 0.2554 | 784.36 | 2.283
x2 = 0.2999 | 779.83 | 1.962
x2 = 0.3554 | 774.4 | 1.614
x2 = 0.3998 | 770.24 | 1.375
x2 = 0.4555 | 765.23 | 1.122
x2 = 0.4998 | 761.41 | 0.954
x2 = 0.5555 | 756.8 | 0.782
x2 = 0.5999 | 753.27 | 0.673
x2 = 0.6554 | 749.04 | 0.57
x2 = 0.6999 | 745.79 | 0.51
x2 = 0.7553 | 741.87 | 0.461
x2 = 0.8 | 738.84 | 0.44
x2 = 0.8555 | 735.2 | 0.432
x2 = 0.8998 | 732.39 | 0.438
x2 = 0.9553 | 728.98 | 0.457

CCCCCCCCCC [decane] + CCCCCCC(C)O
[1], x1 = 1
Conditions | mass density [kg/m3] | viscosity [mPa·s]
– | 726.35 | 0.845

CCCCCCC(C)O (centres undefined) [2-octanol]
[2]
Conditions | mass density [kg/m3] | viscosity [mPa·s]
– | 817.05 | 6.429

CCCCCCCCCC [decane] + CCCCC(C)O
[1], x1 = 1
Conditions | mass density [kg/m3] | viscosity [mPa·s]
– | 726.35 | 0.845

CCCCCCC(C)O (centres undefined) [2-octanol] + CCCCCCCCCC
[1]
Conditions | mass density [kg/m3] | viscosity [mPa·s]
x2 = 0 | 817.05 | 6.429
x2 = 0.0554 | 810.77 | 5.222
x2 = 0.0998 | 805.83 | 4.638
x2 = 0.1554 | 799.74 | 3.972
x2 = 0.1999 | 794.99 | 3.491
x2 = 0.2554 | 789.2 | 2.951
x2 = 0.2999 | 784.67 | 2.564
x2 = 0.3555 | 779.16 | 2.136
x2 = 0.3998 | 774.9 | 1.836
x2 = 0.4554 | 769.69 | 1.509
x2 = 0.4999 | 765.64 | 1.284
x2 = 0.5555 | 760.74 | 1.046
x2 = 0.5998 | 756.94 | 0.889
x2 = 0.6555 | 752.3 | 0.73
x2 = 0.7 | 748.7 | 0.63
x2 = 0.7554 | 744.32 | 0.538
x2 = 0.7998 | 740.91 | 0.487
x2 = 0.8554 | 736.74 | 0.45
x2 = 0.8999 | 733.47 | 0.438
x2 = 0.9554 | 729.48 | 0.445

CCCCCC(C)O (centres undefined) [2-heptanol]
[2]
Conditions | mass density [kg/m3] | viscosity [mPa·s]
– | 813.74 | 5.08

CCCCC(C)O (centres undefined) [2-hexanol]
[2]
Conditions | mass density [kg/m3] | viscosity [mPa·s]
– | 810.84 | 4.105

CCCCC(C)O (centres undefined) [2-hexanol] + CCCCCCCCCC
[1]
Conditions | mass density [kg/m3] | viscosity [mPa·s]
x2 = 0 | 810.84 | 4.105
x2 = 0.0555 | 802.94 | 3.569
x2 = 0.0999 | 797.23 | 3.17
x2 = 0.1554 | 790.5 | 2.725
x2 = 0.1998 | 785.43 | 2.41
x2 = 0.2556 | 779.42 | 2.062
x2 = 0.2999 | 774.91 | 1.821
x2 = 0.3555 | 769.55 | 1.561
x2 = 0.3998 | 765.52 | 1.384
x2 = 0.4554 | 760.72 | 1.198
x2 = 0.4998 | 757.1 | 1.076
x2 = 0.5554 | 752.79 | 0.952
x2 = 0.5997 | 749.54 | 0.875
x2 = 0.6555 | 745.66 | 0.802
x2 = 0.6999 | 742.72 | 0.76
x2 = 0.7555 | 739.25 | 0.725
x2 = 0.7998 | 736.62 | 0.708
x2 = 0.8555 | 733.48 | 0.699
x2 = 0.8999 | 731.11 | 0.698
x2 = 0.9555 | 728.29 | 0.703

CCCCCCCCCC [decane] + CCCCCC(C)O
[1], x1 = 1
Conditions | mass density [kg/m3] | viscosity [mPa·s]
– | 726.35 | 0.845

CCCCCCCCCC [decane]
[2]
Conditions | mass density [kg/m3] | viscosity [mPa·s]
– | 726.35 | 0.845
